Patent US20230183243A1, “HETEROARYL DERIVATIVES AND PHARMACEUTICAL COMPOSITION COMPRISING SAME AS ACTIVE INGREDIENT” (VORONOI INC., priority 2019, published 2023)

Key:
JNK1 = target: T1, JNK1 (Homo sapiens, UniProt P45983); test: JNK enzyme activity, Kinase HotSpot service (Reaction Biology Corporation); type: biochemical; conditions: ATP concentration of 10 μM
T1 construct: purchased DiscoverX Corp. (ScanMAX Kinase panel, commissioned)
Experimental: (§1) IC50 values of the compound of Example 7 for the enzymes were measured using the Kinase HotSpot service (Reaction Biology Corporation), and a test was performed under the same conditions at an ATP concentration of 10 μM. The concentration of the compound was measured at a 3-fold concentration gradient from the peak concentration of 10 mM.
(§2) All the experimental methods were performed as provided in the Kinase HotSpot Customer Protocol (http://www.reactionbiology.com//Kinase_Assay_Protocol).

JNK2 = target: T2, JNK2 (Homo sapiens, UniProt P45984); test: as above; type: biochemical; conditions: ATP concentration of 10 μM
T2 construct: purchased DiscoverX Corp. (ScanMAX Kinase panel, commissioned)
Experimental: as §1, §2

JNK3 = target: T3, JNK3 (Homo sapiens, UniProt P53779); test: as above; type: biochemical; conditions: ATP concentration of 10 μM
T3 construct: purchased DiscoverX Corp. (ScanMAX Kinase panel, commissioned)
T3 sequence (P53779 whole entry): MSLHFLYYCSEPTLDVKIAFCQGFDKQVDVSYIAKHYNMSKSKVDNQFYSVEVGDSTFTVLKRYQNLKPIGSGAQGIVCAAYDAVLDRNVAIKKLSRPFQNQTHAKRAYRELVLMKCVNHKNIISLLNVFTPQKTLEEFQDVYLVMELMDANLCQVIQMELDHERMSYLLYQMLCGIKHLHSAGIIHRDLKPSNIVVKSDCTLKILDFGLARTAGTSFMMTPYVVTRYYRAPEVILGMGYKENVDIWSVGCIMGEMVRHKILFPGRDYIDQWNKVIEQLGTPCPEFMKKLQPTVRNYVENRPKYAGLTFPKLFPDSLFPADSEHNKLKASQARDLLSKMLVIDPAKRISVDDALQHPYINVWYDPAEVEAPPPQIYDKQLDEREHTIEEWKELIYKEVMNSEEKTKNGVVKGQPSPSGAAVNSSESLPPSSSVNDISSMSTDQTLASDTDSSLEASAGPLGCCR
Experimental: as §1, §2

TTK [1] = target: T4, TTK (Homo sapiens, UniProt P33981); test: TTK enzyme activity, ADP-Glo kinase assay; type: biochemical; set-up: purchased SignalChem T20-10G; conditions: purified human TTK, ATP 10 μM, 25° C., 2 hours
T4 sequence (P33981 1-857): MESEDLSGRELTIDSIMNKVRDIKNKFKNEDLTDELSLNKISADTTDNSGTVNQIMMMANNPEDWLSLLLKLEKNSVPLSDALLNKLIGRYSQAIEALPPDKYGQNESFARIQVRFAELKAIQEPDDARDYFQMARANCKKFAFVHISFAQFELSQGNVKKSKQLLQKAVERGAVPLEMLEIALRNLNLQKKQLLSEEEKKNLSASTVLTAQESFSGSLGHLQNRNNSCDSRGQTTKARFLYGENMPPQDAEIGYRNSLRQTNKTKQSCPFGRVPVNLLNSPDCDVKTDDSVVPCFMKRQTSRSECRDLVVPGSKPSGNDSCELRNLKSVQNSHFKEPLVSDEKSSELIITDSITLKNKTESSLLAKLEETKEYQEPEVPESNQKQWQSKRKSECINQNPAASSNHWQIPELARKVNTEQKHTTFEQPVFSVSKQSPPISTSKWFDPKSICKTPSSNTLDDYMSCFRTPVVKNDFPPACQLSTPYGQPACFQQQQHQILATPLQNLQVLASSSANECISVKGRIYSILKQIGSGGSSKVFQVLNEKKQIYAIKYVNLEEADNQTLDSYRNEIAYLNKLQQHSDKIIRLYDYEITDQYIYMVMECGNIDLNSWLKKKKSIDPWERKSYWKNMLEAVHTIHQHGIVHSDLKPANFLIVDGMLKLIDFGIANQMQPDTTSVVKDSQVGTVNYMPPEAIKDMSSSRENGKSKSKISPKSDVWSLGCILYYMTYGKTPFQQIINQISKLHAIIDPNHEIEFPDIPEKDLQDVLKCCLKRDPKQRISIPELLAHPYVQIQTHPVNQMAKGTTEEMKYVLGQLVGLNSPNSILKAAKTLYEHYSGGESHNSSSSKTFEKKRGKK
Summary of the method: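 Purified human TTK (25 ng) incubated with 10 μM ATP and substrate (0.2 μg) for 2 h at 25 °C in Tris-HCl pH 7.4, MgCl2, BSA, DTT buffer. ADP formation read by ADP-Glo; inhibition calculated against untreated solvent control.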

TTK [2] = target: T4, TTK; test: ScanMAX Kinase panel (DiscoverX); type: binding; set-up: purchased DiscoverX Corp. (ScanMAX Kinase panel, commissioned); conditions: read-out: % Cont @ 1 μM
Experimental: (§3) Specifically, the enzyme (kinase) selectivity of the compound of Example 7 selected from the Example compounds of the present invention was measured by commissioning DiscoverX Corp., and an experiment was performed using a panel for ScanMAX™ Kinase analysis.
(§4) In this case, the concentration of a drug treated with the enzyme was set at 1 μM in DMSO, and percent control (% control) was defined in the same manner as in the following Expression 1.
(§5) (Example compound−Positive control)/(Negative control−Positive control)×100 [Expression 1]
(§6) Wherein the positive control represents a compound having a percent control of 0%, and the negative control represents a compound having a percent control of 100% in DMSO. For the enzyme selectivity of the present invention, the compound was also judged to have activity against the corresponding enzyme when the percent control for each of the enzymes was <30% (i.e., less than 30%).
(§7) Further, to evaluate the inhibitory activity of the compound according to the present invention against more enzymes, an experiment was performed as follows. Specifically, the enzyme (kinase) selectivity of the compound of Example 64 selected from the Example compounds of the present invention was measured by commissioning DiscoverX Corp., and an experiment was performed using a panel for ScanMAX™ Kinase analysis. In this case, the concentration of a drug treated with the enzyme was set at 1 μM in DMSO, and the percent control (% control) were defined in the same manner as in the following Expression 1.
as §6, with “<35%” for “<30%”, “35%).” for “30%).”

LRRK2 = LRRK2 (Homo sapiens, UniProt Q5S007); test: ScanMAX Kinase panel (DiscoverX); type: binding; set-up: purchased DiscoverX Corp. (ScanMAX Kinase panel, commissioned); conditions: read-out: % Cont @ 1 μM
LRRK2, sequence (Q5S007 whole entry): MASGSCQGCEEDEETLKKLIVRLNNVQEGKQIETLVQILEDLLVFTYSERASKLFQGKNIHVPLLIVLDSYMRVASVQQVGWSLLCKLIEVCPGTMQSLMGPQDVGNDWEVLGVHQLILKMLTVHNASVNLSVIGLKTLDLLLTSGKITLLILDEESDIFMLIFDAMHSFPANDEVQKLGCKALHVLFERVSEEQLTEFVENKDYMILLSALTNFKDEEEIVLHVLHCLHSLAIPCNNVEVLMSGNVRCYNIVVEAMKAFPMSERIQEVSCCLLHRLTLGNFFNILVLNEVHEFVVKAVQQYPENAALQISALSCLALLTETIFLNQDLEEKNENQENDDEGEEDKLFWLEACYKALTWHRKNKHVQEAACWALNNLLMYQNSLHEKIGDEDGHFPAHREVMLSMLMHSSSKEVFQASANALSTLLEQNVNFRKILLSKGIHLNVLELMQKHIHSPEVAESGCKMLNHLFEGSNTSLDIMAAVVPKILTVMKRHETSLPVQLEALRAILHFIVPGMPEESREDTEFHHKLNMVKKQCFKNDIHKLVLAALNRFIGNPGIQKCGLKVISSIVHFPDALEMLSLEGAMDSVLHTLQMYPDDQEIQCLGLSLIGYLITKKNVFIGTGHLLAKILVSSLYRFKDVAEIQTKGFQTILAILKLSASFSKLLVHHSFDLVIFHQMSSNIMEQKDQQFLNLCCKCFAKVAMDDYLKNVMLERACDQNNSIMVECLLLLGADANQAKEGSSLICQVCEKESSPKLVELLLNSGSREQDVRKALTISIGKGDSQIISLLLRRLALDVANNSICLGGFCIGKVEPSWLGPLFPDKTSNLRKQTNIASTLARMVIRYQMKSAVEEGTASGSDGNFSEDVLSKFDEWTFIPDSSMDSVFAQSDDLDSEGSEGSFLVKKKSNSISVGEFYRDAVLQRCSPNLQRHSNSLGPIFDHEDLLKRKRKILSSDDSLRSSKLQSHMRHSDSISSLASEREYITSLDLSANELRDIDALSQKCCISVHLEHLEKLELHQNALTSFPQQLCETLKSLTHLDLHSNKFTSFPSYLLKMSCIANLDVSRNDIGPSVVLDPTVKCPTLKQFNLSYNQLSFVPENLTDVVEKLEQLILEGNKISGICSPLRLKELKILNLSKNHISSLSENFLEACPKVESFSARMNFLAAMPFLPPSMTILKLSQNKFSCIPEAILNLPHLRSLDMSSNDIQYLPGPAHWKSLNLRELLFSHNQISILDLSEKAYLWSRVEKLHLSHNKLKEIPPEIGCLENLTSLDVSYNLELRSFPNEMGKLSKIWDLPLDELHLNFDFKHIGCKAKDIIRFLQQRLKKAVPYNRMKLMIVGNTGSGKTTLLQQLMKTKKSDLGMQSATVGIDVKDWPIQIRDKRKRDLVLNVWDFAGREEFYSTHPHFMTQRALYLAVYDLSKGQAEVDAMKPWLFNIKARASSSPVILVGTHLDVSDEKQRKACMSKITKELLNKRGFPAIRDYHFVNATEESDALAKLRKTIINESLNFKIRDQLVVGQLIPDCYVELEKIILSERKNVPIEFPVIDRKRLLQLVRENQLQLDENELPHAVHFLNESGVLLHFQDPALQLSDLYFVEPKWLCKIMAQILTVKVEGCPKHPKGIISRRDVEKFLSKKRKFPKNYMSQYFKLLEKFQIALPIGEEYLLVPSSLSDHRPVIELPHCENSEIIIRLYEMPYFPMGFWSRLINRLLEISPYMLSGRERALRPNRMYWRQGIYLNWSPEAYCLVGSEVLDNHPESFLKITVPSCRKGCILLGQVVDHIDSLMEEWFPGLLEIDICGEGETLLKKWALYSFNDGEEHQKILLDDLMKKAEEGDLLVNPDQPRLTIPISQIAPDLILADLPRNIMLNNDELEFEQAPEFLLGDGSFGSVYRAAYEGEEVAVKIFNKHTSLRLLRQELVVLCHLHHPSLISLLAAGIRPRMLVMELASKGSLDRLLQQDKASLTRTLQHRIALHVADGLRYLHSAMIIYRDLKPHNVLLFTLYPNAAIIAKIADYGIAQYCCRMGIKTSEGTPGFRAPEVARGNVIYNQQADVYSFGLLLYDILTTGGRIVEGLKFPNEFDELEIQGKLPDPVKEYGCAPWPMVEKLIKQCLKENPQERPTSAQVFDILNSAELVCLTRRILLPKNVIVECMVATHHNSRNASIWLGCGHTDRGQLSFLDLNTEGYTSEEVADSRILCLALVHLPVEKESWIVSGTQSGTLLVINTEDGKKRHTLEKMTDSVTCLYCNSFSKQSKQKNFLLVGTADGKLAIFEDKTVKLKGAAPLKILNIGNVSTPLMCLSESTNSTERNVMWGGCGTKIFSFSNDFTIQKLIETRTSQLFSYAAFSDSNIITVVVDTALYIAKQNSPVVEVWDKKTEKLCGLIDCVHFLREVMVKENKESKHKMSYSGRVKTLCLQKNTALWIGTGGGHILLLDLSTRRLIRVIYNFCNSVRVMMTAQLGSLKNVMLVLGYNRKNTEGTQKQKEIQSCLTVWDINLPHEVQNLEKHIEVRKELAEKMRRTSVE
Experimental: as §3, §4, §5, §6, §7
as §6, with “<35%” for “<30%”, “35%).” for “30%).”

PKN2 = target: T5, PKN2 (Homo sapiens, UniProt Q16513); test: ScanMAX Kinase panel (DiscoverX); type: binding; conditions: read-out: % Cont @ 1 μM
T5 construct: purchased DiscoverX Corp. ScanMAX Kinase panel
Experimental: as §7, §5
as §6, with “<35%” for “<30%”, “35%).” for “30%).”

YSK4 = target: T6, YSK4 (Homo sapiens, UniProt Q56UN5); test: ScanMAX Kinase panel (DiscoverX); type: binding; conditions: read-out: % Cont @ 1 μM
T6 construct: purchased DiscoverX Corp. (ScanMAX Kinase panel, commissioned)
Experimental: as §7, §5
as §6, with “<35%” for “<30%”, “35%).” for “30%).”

SNARK = target: T7, SNARK (Homo sapiens, UniProt Q9H093); test: ScanMAX Kinase panel (DiscoverX); type: binding
T7 construct: purchased DiscoverX Corp. (ScanMAX Kinase panel, commissioned)
T7 sequence (Q9H093 whole entry): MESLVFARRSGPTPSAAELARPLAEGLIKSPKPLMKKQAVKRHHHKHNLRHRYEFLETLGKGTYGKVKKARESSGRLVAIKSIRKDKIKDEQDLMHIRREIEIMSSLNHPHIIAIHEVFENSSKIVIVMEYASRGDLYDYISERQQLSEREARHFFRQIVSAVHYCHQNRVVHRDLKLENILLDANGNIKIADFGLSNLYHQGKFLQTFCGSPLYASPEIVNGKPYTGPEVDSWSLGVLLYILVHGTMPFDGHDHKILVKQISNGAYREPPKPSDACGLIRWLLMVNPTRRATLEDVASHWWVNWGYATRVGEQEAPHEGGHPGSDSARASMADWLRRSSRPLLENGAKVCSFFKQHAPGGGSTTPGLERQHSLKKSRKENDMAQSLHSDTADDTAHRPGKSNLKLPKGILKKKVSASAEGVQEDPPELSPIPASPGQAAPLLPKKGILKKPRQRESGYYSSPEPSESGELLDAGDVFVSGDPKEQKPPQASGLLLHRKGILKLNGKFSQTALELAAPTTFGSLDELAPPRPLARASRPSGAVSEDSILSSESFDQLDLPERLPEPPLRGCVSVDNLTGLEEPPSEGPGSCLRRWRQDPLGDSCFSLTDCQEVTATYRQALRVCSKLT
Experimental: as §7, §5
as §6, with “<35%” for “<30%”, “35%).” for “30%).”

ULK3 = target: T8, ULK3 (Homo sapiens, UniProt Q6PHR2); test: ScanMAX Kinase panel (DiscoverX); type: binding
T8 construct: purchased DiscoverX Corp. ScanMAX Kinase panel
T8 sequence (Q6PHR2 whole entry): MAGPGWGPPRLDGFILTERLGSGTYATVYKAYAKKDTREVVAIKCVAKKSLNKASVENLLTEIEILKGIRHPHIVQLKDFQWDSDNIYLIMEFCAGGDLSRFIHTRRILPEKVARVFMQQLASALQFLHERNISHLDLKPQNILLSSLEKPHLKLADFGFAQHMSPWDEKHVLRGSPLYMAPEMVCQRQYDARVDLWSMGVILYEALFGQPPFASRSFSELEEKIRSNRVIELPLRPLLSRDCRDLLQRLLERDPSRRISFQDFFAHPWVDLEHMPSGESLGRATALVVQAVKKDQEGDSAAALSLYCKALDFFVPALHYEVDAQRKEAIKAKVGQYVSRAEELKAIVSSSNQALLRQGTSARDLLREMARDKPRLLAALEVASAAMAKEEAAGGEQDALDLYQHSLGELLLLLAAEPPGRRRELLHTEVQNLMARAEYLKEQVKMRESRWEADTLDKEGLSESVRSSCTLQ
Experimental: as §7, §5
as §6, with “<35%” for “<30%”, “35%).” for “30%).”

CSNK1E = target: T9, CSNK1E (Homo sapiens, UniProt P49674); test: ScanMAX Kinase panel (DiscoverX); type: binding; conditions: read-out: % Cont @ 1 μM
T9 construct: purchased DiscoverX Corp. ScanMAX Kinase panel
T9 sequence (P49674 whole entry): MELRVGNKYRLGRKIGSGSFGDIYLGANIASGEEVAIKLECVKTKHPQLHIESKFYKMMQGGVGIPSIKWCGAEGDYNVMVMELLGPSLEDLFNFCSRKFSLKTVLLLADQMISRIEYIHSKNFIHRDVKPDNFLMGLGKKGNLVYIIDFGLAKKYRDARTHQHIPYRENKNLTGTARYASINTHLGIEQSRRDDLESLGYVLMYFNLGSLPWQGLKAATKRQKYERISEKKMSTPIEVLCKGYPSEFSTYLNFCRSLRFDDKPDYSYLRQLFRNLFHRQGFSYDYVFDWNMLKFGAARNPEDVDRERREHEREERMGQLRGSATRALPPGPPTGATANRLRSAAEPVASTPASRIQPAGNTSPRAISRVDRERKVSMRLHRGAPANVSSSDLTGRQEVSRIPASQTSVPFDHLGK
Experimental: as §7, §5
as §6, with “<35%” for “<30%”, “35%).” for “30%).”

T1 sequence (P45983 whole entry): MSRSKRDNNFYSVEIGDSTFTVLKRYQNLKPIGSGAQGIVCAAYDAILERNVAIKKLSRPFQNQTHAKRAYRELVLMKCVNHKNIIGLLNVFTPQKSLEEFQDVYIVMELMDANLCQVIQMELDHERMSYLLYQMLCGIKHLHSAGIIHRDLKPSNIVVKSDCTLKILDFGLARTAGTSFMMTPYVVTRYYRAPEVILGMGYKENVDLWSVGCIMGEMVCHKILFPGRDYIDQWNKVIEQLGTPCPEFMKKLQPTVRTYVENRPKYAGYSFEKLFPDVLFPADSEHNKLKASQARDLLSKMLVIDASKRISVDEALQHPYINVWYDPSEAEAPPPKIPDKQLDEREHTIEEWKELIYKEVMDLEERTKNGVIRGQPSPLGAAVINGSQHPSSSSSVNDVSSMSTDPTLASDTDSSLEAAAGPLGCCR

IC50 (JNK1) [nM]	IC50 (JNK2) [nM]	IC50 (JNK3) [nM]	IC50 (TTK [1]) [nM]	percent of control at 1 µM (TTK [2]) [%]	percent of control binding at 1 µM (LRRK2) [%]	remaining binding at 1 µM (PKN2) [%]	percent of control binding at 1 µM (YSK4) [%]	% Cont @ 1 μM (SNARK) [%]	% Cont @ 1 μM (ULK3) [%]	remaining binding at 1 µM (CSNK1E) [%]	Structure (SMILES)
< 100	< 100	< 100	< 50	0.25	4.8						COc1cc(-c2ccnn2C)ccc1Nc1nc(NC2CCCCC2)c2c(C#N)c[nH]c2n1 [Example 7, 4-(cyclohexylamino)-2-((2-methoxy-4-(1-methyl-1H-pyrazol-5-yl)phenyl)amino)-7H-pyrrolo[2,3-d] pyrimidine-5-carbonitrile]
			< 50	0.25	14	28	0.3	0	2.6	24	COc1cc(N2CCCC2=O)ccc1Nc1cc(NC2CCCCC2)c2c(C#N)c[nH]c2n1 [Example 64, 4-(cyclohexylamino)-6-((2-methoxy-4-(2-oxopyrrolidin-1-yl)phenyl)amino)-1H-pyrrolo[2,3-b] pyridine-3-carbonitrile]
